Measurements reported in ChEMBL document CHEMBL3137667, “[Drug-induced liver injury; fourteenth updated edition of the bibliographic database of liver injuries and related drugs]” (Gastroenterol Clin Biol, 2004).

What was measured:
[1] = human
[2] = human; remark: listed apart in the source
[3] = Highest frequency of acute liver toxicity observed during clinical trials, expressed as a percentage. [column '% AIGUE' in source]; conditions: human
[4] = human; remark: listed apart in the source
[5] = human, serum, 4383 h
[6] = human; remark: listed apart in the source
[7] = human; remark: listed apart in the source
[8] = Proposed mechanism(s) of liver damage. [column 'MEC' in source]; conditions: human
[9] = human; remark: listed apart in the source
[10] = human; remark: listed apart in the source
[11] = Comments (NB not yet translated). [column 'COMMENTAIRES' in source]; conditions: human
[12] = human; remark: listed apart in the source
[13] = human, serum
[14] = human; remark: listed apart in the source
[15] = human, serum; remark: listed apart in the source
[16] = Highest frequency of moderate liver toxicity observed during clinical trials, expressed as a percentage. [column '% BIOL' in source]; conditions: human
[17] = Times to onset, minimal and maximal, observed in the indexed observations. [column 'DELAI' in source]; conditions: human
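For Hepatotoxicity (association with vascular disease) in this document: count of indexed literature references reporting vascular liver injury in humans, e.g. peliosis hepatitis, hepatic veno-occlusive disease or Budd-Chiari syndrome.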
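For Hepatotoxicity (benign tumour) in this document: value is a count of indexed literature references citing a benign tumour confirmed by histopathology.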
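For Hepatotoxicity (choleostasis) in this document: human cholestatic liver injury, shown by histopathology or by peak ALT or AST elevation over alkaline phosphatase ratio below 2, value counts indexed literature reports.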
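For Hepatotoxicity (chronic liver disease) in this document: chronic liver injury confirmed by histopathology or persistently raised serum aminotransferase activity beyond 6 months, value given as the count of indexed literature references.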
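For Hepatotoxicity (cirrhosis) in this document: value is a count of indexed literature references reporting cirrhosis confirmed by histopathology.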
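For Hepatotoxicity (cytolytic) in this document: human cytolytic liver injury, shown by histopathology or by a ratio above 5 of peak ALT or AST elevation to alkaline phosphatase elevation, value counts indexed references.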
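For Hepatotoxicity (granulomatous hepatitis) in this document: value is a count of indexed literature references reporting granulomatous liver disease confirmed by histopathology.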
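For Hepatotoxicity (malignant tumour) in this document: malignant tumour confirmed by histopathology, value gives the count of indexed literature references reporting it.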
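For Hepatotoxicity (severe hepatitis) in this document: human clinical data: severe hepatitis, meaning potentially life-threatening liver failure or clinically observed cases, the value counts how many indexed literature references report it.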
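For Hepatotoxicity (steatosis) in this document: steatosis confirmed by histopathology, value is the count of indexed references.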

Compound: CCc1nc(N)nc(N)c1-c1ccc(Cl)cc1 [PYRIMETHAMINE]
- Hepatotoxicity (granulomatous hepatitis) [1]: 1
- Hepatotoxicity (steatosis) [2]: 1
- Hepatotoxicity (acute) [3]: 0%
- Hepatotoxicity (malignant tumour) [4]: 0
- Hepatotoxicity (chronic liver disease) [5]: 0
- Hepatotoxicity (cytolytic) [6]: 0
- Hepatotoxicity (severe hepatitis) [7]: 0
- Hepatotoxicity (mechanism) [8]: Dose-dependant
- Hepatotoxicity (association with vascular disease) [9]: 0
- Hepatotoxicity (choleostasis) [10]: 1
- Hepatotoxicity (comment) [11]: I/LORAZEPAM
- Hepatotoxicity (cirrhosis) [12]: 0
- Hepatotoxicity (acute) [13]: 1
- Hepatotoxicity (benign tumour) [14]: 0
- Hepatotoxicity (moderate) [15]: 8
- Hepatotoxicity (moderate) [16]: 28.6%
- Hepatotoxicity (time to onset) [17]: 4 hours - 4 months

Compound: CN(CCOc1ccc(CC2SC(=O)NC2=O)cc1)c1ccccn1 (stereo not given) [ROSIGLITAZONE]
- Hepatotoxicity (granulomatous hepatitis) [1]: 3
- Hepatotoxicity (steatosis) [2]: 0
- Hepatotoxicity (acute) [3]: 0%
- Hepatotoxicity (malignant tumour) [4]: 0
- Hepatotoxicity (chronic liver disease) [5]: 1
- Hepatotoxicity (cytolytic) [6]: 7
- Hepatotoxicity (severe hepatitis) [7]: 5
- Hepatotoxicity (mechanism) [8]: Allergic
- Hepatotoxicity (association with vascular disease) [9]: 0
- Hepatotoxicity (choleostasis) [10]: 2
- Hepatotoxicity (comment) [11]: CHOLANGITE
- Hepatotoxicity (cirrhosis) [12]: 0
- Hepatotoxicity (acute) [13]: 10
- Hepatotoxicity (benign tumour) [14]: 0
- Hepatotoxicity (moderate) [15]: 8
- Hepatotoxicity (moderate) [16]: 0.2%
- Hepatotoxicity (time to onset) [17]: 1 week - 4 years

Compound: Nc1ccc(S(=O)(=O)Nc2ncccn2)cc1 [SULFADIAZINE]
- Hepatotoxicity (granulomatous hepatitis) ([1]; Liver): 0
- Hepatotoxicity (steatosis) [2]: 0
- Hepatotoxicity (acute) ([3]; Liver): 0%
- Hepatotoxicity (malignant tumour) [4]: 0
- Hepatotoxicity (chronic liver disease) [5]: 0
- Hepatotoxicity (cytolytic) ([6]; Liver): 3
- Hepatotoxicity (severe hepatitis) ([7]; Liver): 1
- Hepatotoxicity (mechanism) ([8]; Liver): Allergic, Reactive metabolite
- Hepatotoxicity (association with vascular disease) [9]: 0
- Hepatotoxicity (choleostasis) ([10]; Liver): 1
- Hepatotoxicity (comment) [11]: CHOLESTASE_PROLONGEE
- Hepatotoxicity (cirrhosis) [12]: 0
- Hepatotoxicity (acute) [13]: 8
- Hepatotoxicity (benign tumour) [14]: 0
- Hepatotoxicity (moderate) [15]: 2
- Hepatotoxicity (moderate) ([16]; Liver): 2.7%
- Hepatotoxicity (time to onset) [17]: 1 week - 2 months

Compound: Cc1noc(NS(=O)(=O)c2ccc(N)cc2)c1C [SULFISOXAZOLE]
- Hepatotoxicity (granulomatous hepatitis) [1]: 0
- Hepatotoxicity (steatosis) [2]: 0
- Hepatotoxicity (acute) ([3]; Liver): 0%
- Hepatotoxicity (malignant tumour) [4]: 0
- Hepatotoxicity (chronic liver disease) [5]: 0
- Hepatotoxicity (cytolytic) [6]: 1
- Hepatotoxicity (severe hepatitis) ([7]; Liver): 1
- Hepatotoxicity (mechanism) [8]: Allergic
- Hepatotoxicity (association with vascular disease) [9]: 0
- Hepatotoxicity (choleostasis) [10]: 2
- Hepatotoxicity (comment) [11]: CHOLANGITE RC/COTRIMOXAZOLE
- Hepatotoxicity (cirrhosis) [12]: 0
- Hepatotoxicity (acute) [13]: 4
- Hepatotoxicity (benign tumour) [14]: 0
- Hepatotoxicity (moderate) [15]: 0
- Hepatotoxicity (moderate) ([16]; Liver): 0%
- Hepatotoxicity (time to onset) [17]: 2 days - 6 days

Compound: CC(S)C(=O)NCC(=O)O (stereo not given) [TIOPRONIN]
- Hepatotoxicity (granulomatous hepatitis) [1]: 0
- Hepatotoxicity (steatosis) [2]: 1
- Hepatotoxicity (acute) [3]: 2.1%
- Hepatotoxicity (malignant tumour) [4]: 0
- Hepatotoxicity (chronic liver disease) [5]: 3
- Hepatotoxicity (cytolytic) [6]: 1
- Hepatotoxicity (severe hepatitis) [7]: 0
- Hepatotoxicity (mechanism) [8]: Allergic
- Hepatotoxicity (association with vascular disease) [9]: 0
- Hepatotoxicity (choleostasis) [10]: 8
- Hepatotoxicity (comment) [11]: CHOLESTASE_PROLONGEE #CBP
- Hepatotoxicity (cirrhosis) [12]: 0
- Hepatotoxicity (acute) [13]: 10
- Hepatotoxicity (benign tumour) [14]: 0
- Hepatotoxicity (moderate) [15]: 1
- Hepatotoxicity (moderate) [16]: 0%
- Hepatotoxicity (time to onset) [17]: 19 days - 2 years

Compound: Cc1cccc(C)c1NC(=O)C(C)N (stereo not given) [TOCAINIDE]
- Hepatotoxicity (granulomatous hepatitis) [1]: 1
- Hepatotoxicity (steatosis) [2]: 1
- Hepatotoxicity (acute) [3]: 0%
- Hepatotoxicity (malignant tumour) [4]: 0
- Hepatotoxicity (chronic liver disease) [5]: 0
- Hepatotoxicity (cytolytic) [6]: 5
- Hepatotoxicity (severe hepatitis) [7]: 0
- Hepatotoxicity (mechanism) [8]: Allergic
- Hepatotoxicity (association with vascular disease) [9]: 0
- Hepatotoxicity (choleostasis) [10]: 4
- Hepatotoxicity (comment) [11]: AC_ANTI-N/-ML
- Hepatotoxicity (cirrhosis) [12]: 0
- Hepatotoxicity (acute) [13]: 6
- Hepatotoxicity (benign tumour) [14]: 0
- Hepatotoxicity (moderate) [15]: 2
- Hepatotoxicity (moderate) [16]: 1.7%
- Hepatotoxicity (time to onset) [17]: 1 month - 2 months

Compound: CC1=C(/C=C/C(C)=C/C=C/C(C)=C/C(=O)O)C(C)(C)CCC1 [TRETINOIN]
- Hepatotoxicity (granulomatous hepatitis) [1]: 0
- Hepatotoxicity (steatosis) [2]: 0
- Hepatotoxicity (acute) [3]: 16.7%
- Hepatotoxicity (malignant tumour) [4]: 0
- Hepatotoxicity (chronic liver disease) [5]: 0
- Hepatotoxicity (cytolytic) [6]: 3
- Hepatotoxicity (severe hepatitis) [7]: 2
- Hepatotoxicity (mechanism) [8]: Dose-dependant
- Hepatotoxicity (association with vascular disease) [9]: 0
- Hepatotoxicity (choleostasis) [10]: 4
- Hepatotoxicity (comment) [11]: CHOLANGITE
- Hepatotoxicity (cirrhosis) [12]: 0
- Hepatotoxicity (acute) [13]: 10
- Hepatotoxicity (benign tumour) [14]: 0
- Hepatotoxicity (moderate) [15]: 26
- Hepatotoxicity (moderate) [16]: 85%
- Hepatotoxicity (time to onset) [17]: 10 days - 38 days

Compound: CC(CN(C)C)CN1c2ccccc2CCc2ccccc21 (stereo not given) [TRIMIPRAMINE]
- Hepatotoxicity (granulomatous hepatitis) [1]: 0
- Hepatotoxicity (steatosis) [2]: 0
- Hepatotoxicity (acute) [3]: 0%
- Hepatotoxicity (malignant tumour) [4]: 0
- Hepatotoxicity (chronic liver disease) [5]: 0
- Hepatotoxicity (cytolytic) [6]: 1
- Hepatotoxicity (severe hepatitis) [7]: 0
- Hepatotoxicity (mechanism) [8]: Dose-dependant
- Hepatotoxicity (association with vascular disease) [9]: 0
- Hepatotoxicity (choleostasis) [10]: 0
- Hepatotoxicity (comment) [11]: RC/DESIPRAMINE/CYAMEMAZINE
- Hepatotoxicity (cirrhosis) [12]: 0
- Hepatotoxicity (acute) [13]: 2
- Hepatotoxicity (benign tumour) [14]: 0
- Hepatotoxicity (moderate) [15]: 2
- Hepatotoxicity (moderate) [16]: 0%
- Hepatotoxicity (time to onset) [17]: 2 weeks - 3 weeks

Compound: Cc1c(C)c2c(c(C)c1O)CCC(C)(COc1ccc(CC3SC(=O)NC3=O)cc1)O2 (stereo not given) [TROGLITAZONE]
- Hepatotoxicity (granulomatous hepatitis) [1]: 1
- Hepatotoxicity (steatosis) [2]: 2
- Hepatotoxicity (acute) [3]: 5%
- Hepatotoxicity (malignant tumour) [4]: 0
- Hepatotoxicity (chronic liver disease) [5]: 1
- Hepatotoxicity (cytolytic) [6]: 27
- Hepatotoxicity (severe hepatitis) [7]: 21
- Hepatotoxicity (mechanism) [8]: Mitochondrial toxicity
- Hepatotoxicity (association with vascular disease) [9]: 0
- Hepatotoxicity (choleostasis) [10]: 4
- Hepatotoxicity (comment) [11]: CHOLESTASE_PROLONGEE
- Hepatotoxicity (cirrhosis) [12]: 0
- Hepatotoxicity (acute) [13]: 36
- Hepatotoxicity (benign tumour) [14]: 0
- Hepatotoxicity (moderate) [15]: 18
- Hepatotoxicity (moderate) [16]: 5.8%
- Hepatotoxicity (time to onset) [17]: 3 days - 2.3 years

Compound: GEMTUZUMAB OZOGAMICIN
- Hepatotoxicity (granulomatous hepatitis) [1]: 0
- Hepatotoxicity (steatosis) [2]: 0
- Hepatotoxicity (acute) [3]: 38.3%
- Hepatotoxicity (malignant tumour) [4]: 0
- Hepatotoxicity (chronic liver disease) [5]: 0
- Hepatotoxicity (cytolytic) [6]: 10
- Hepatotoxicity (severe hepatitis) [7]: 1
- Hepatotoxicity (mechanism) [8]: Dose-dependant
- Hepatotoxicity (association with vascular disease) [9]: 19
- Hepatotoxicity (choleostasis) [10]: 2
- Hepatotoxicity (comment) [11]: MVO
- Hepatotoxicity (cirrhosis) [12]: 0
- Hepatotoxicity (acute) [13]: 11
- Hepatotoxicity (benign tumour) [14]: 0
- Hepatotoxicity (moderate) [15]: 7
- Hepatotoxicity (moderate) [16]: 47.8%
- Hepatotoxicity (time to onset) [17]: 2 days - 6 months
